{
  "source": "patent US20130296311A1",
  "about": "“INHIBITORS OF HCV NS5A” (PRESIDIO PHARMACEUTICALS, INC., priority 2010, published 2013)",
  "tested_on": "HCV 1b_Huh-Luc/Neo-ET cell line persistently expressing a bicistronic genotype 1b replicon in Huh 7 cells",
  "test": "HCV replicon assay (luciferase readout, 72 h)",
  "assay_type": "cell-based, HCV genotype 1b",
  "conditions": "Hepatitis C virus, Huh-7, 72 h, read-out: Inhibition of HCV genotype 1b",
  "method": "Biological activity of the compounds of the invention was determined using an HCV replicon assay. The HCV 1b_Huh-Luc/Neo-ET cell line persistently expressing a bicistronic genotype 1b replicon in Huh 7 cells was obtained from ReBLikon GMBH. This cell line was used to test compound inhibition using luciferase enzyme activity readout as a measurement of compound inhibition of replicon levels.\nOn Day 1 (the day after plating), each compound is added in triplicate to the cells. Plates incubated for 72 h prior to running the luciferase assay. Enzyme activity was measured using a Bright-Glo Kit (cat. number E2620) manufactured by Promega Corporation. The following equation was used to generate a percent control value for each compound.\n% Control=(Average Compound Value/Average Control)*100\nThe EC50 value was determined using GraphPad Prism and the following equation:\nY=Bottom+(Top-Bottom)/(1+10̂((LogIC50−X)*HillSlope))\nEC50 values of compounds are determined several times in the replicon assay.\nExample compounds of the disclosed invention are illustrated in Tables 1-16 attached as appendices. The tables show inhibitory activity of many of the example compounds with respect to HCV 1b. […] The tables further provide mass spectrometry results for the synthesized example compounds.",
  "data": [
    {"smiles": "CC(C)(C)OC(=O)N[C@@H](C(=O)N1CCC[C@H]1c1ncc(C#Cc2ccc(-c3cnc([C@@H]4CCCN4C(=O)[C@H](NC(=O)OC(C)(C)C)c4ccccc4)[nH]3)cc2)[nH]1)c1ccccc1", "note": "[Compound 99]", "values": [
      {"measurement": "EC50", "result": "< 1", "unit": "nM"}
    ]},
    {"smiles": "O=C(N[C@@H](C(=O)N1CCC[C@H]1c1ncc(C#Cc2ccc(-c3cnc([C@@H]4CCCN4C(=O)[C@H](NC(=O)C4CC4)c4ccccc4)[nH]3)cc2)[nH]1)c1ccccc1)C1CC1", "note": "[Compound 100]", "values": [
      {"measurement": "EC50", "result": "< 1", "unit": "nM"}
    ]},
    {"smiles": "CC(C)(C)OC(=O)N1CCC[C@H]1c1ncc(C#Cc2ccc(-c3cnc([C@@H]4CCCN4C(=O)OC(C)(C)C)[nH]3)cc2)[nH]1", "note": "[Compound 101]", "values": [
      {"measurement": "EC50", "result": "10 to 999", "unit": "nM"}
    ]},
    {"smiles": "O=C(N[C@@H](C(=O)N1CCC[C@H]1c1ncc(C#Cc2ccc(-c3cnc([C@@H]4CCCN4C(=O)[C@H](NC(=O)N4CCOCC4)c4ccccc4)[nH]3)cc2)[nH]1)c1ccccc1)N1CCOCC1", "note": "[Compound 102]", "values": [
      {"measurement": "EC50", "result": "1 to 9.9", "unit": "nM"}
    ]},
    {"smiles": "CC(C)(C)OC(=O)NCC(=O)N1CCC[C@H]1c1ncc(C#Cc2ccc(-c3cnc([C@@H]4CCCN4C(=O)CNC(=O)OC(C)(C)C)[nH]3)cc2)[nH]1", "note": "[Compound 103]", "values": [
      {"measurement": "EC50", "result": "10 to 999", "unit": "nM"}
    ]},
    {"smiles": "C[C@@H](NC(=O)OC(C)(C)C)C(=O)N1CCC[C@H]1c1ncc(C#Cc2ccc(-c3cnc([C@@H]4CCCN4C(=O)[C@@H](C)NC(=O)OC(C)(C)C)[nH]3)cc2)[nH]1", "note": "[Compound 104]", "values": [
      {"measurement": "EC50", "result": "1 to 9.9", "unit": "nM"}
    ]},
    {"smiles": "CC(C)[C@@H](NC(=O)OC(C)(C)C)C(=O)N1CCC[C@H]1c1ncc(C#Cc2ccc(-c3cnc([C@@H]4CCCN4C(=O)[C@H](NC(=O)OC(C)(C)C)C(C)C)[nH]3)cc2)[nH]1", "note": "[Compound 105]", "values": [
      {"measurement": "EC50", "result": "10 to 999", "unit": "nM"}
    ]},
    {"smiles": "CC(C)(C)OC(=O)NC(C)(C)C(=O)N1CCC[C@H]1c1ncc(C#Cc2ccc(-c3cnc([C@@H]4CCCN4C(=O)C(C)(C)NC(=O)OC(C)(C)C)[nH]3)cc2)[nH]1", "note": "[Compound 106]", "values": [
      {"measurement": "EC50", "result": "> 1000", "unit": "nM"}
    ]},
    {"smiles": "CC(C)[C@@H](NC(=O)C1CC1)C(=O)N1CCC[C@H]1c1ncc(C#Cc2ccc(-c3cnc([C@@H]4CCCN4C(=O)[C@H](NC(=O)C4CC4)C(C)C)[nH]3)cc2)[nH]1", "note": "[Compound 107]", "values": [
      {"measurement": "EC50", "result": "1 to 9.9", "unit": "nM"}
    ]},
    {"smiles": "CC(C)(NC(=O)C1CC1)C(=O)N1CCC[C@H]1c1ncc(C#Cc2ccc(-c3cnc([C@@H]4CCCN4C(=O)C(C)(C)NC(=O)C4CC4)[nH]3)cc2)[nH]1", "note": "[Compound 108]", "values": [
      {"measurement": "EC50", "result": "> 1000", "unit": "nM"}
    ]},
    {"smiles": "CC(=O)N[C@@H](C(=O)N1CCC[C@H]1c1ncc(C#Cc2ccc(-c3cnc([C@@H]4CCCN4C(=O)[C@H](NC(C)=O)c4ccccc4)[nH]3)cc2)[nH]1)c1ccccc1", "note": "[Compound 109]", "values": [
      {"measurement": "EC50", "result": "< 1", "unit": "nM"}
    ]},
    {"smiles": "COC(=O)N[C@@H](C(=O)N1CCC[C@H]1c1ncc(C#Cc2ccc(-c3cnc([C@@H]4CCCN4C(=O)[C@H](NC(=O)OC)c4ccccc4)[nH]3)cc2)[nH]1)c1ccccc1", "note": "[Compound 110]", "values": [
      {"measurement": "EC50", "result": "< 1", "unit": "nM"}
    ]},
    {"smiles": "C[C@@H](NC(=O)C1CC1)C(=O)N1CCC[C@H]1c1ncc(C#Cc2ccc(-c3cnc([C@@H]4CCCN4C(=O)[C@@H](C)NC(=O)C4CC4)[nH]3)cc2)[nH]1", "note": "[Compound 111]", "values": [
      {"measurement": "EC50", "result": "1 to 9.9", "unit": "nM"}
    ]},
    {"smiles": "O=C([C@H](O)c1ccccc1)N1CCC[C@H]1c1ncc(C#Cc2ccc(-c3cnc([C@@H]4CCCN4C(=O)[C@H](O)c4ccccc4)[nH]3)cc2)[nH]1", "note": "[Compound 112]", "values": [
      {"measurement": "EC50", "result": "< 1", "unit": "nM"}
    ]},
    {"smiles": "O=C(NCC(=O)N1CCC[C@H]1c1ncc(C#Cc2ccc(-c3cnc([C@@H]4CCCN4C(=O)CNC(=O)C4CC4)[nH]3)cc2)[nH]1)C1CC1", "note": "[Compound 113]", "values": [
      {"measurement": "EC50", "result": "10 to 999", "unit": "nM"}
    ]},
    {"smiles": "CC(C)[C@@H](NC(=O)OC(C)(C)C)C(=O)N1CCC[C@H]1C(=O)Nc1ccc(C#Cc2cnc([C@@H]3CCCN3C(=O)[C@H](NC(=O)OC(C)(C)C)C(C)C)[nH]2)cc1", "note": "[Compound 114]", "values": [
      {"measurement": "EC50", "result": "10 to 999", "unit": "nM"}
    ]},
    {"smiles": "CC(C)(C)OC(=O)N[C@@H](C(=O)N1CCC[C@H]1C(=O)Nc1ccc(C#Cc2cnc([C@@H]3CCCN3C(=O)[C@H](NC(=O)OC(C)(C)C)c3ccccc3)[nH]2)cc1)c1ccccc1", "note": "[Compound 115]", "values": [
      {"measurement": "EC50", "result": "< 1", "unit": "nM"}
    ]},
    {"smiles": "CC(C)[C@@H](NC(=O)C1CC1)C(=O)N1CCC[C@H]1C(=O)Nc1ccc(C#Cc2cnc([C@@H]3CCCN3C(=O)[C@H](NC(=O)C3CC3)C(C)C)[nH]2)cc1", "note": "[Compound 116]", "values": [
      {"measurement": "EC50", "result": "1 to 9.9", "unit": "nM"}
    ]},
    {"smiles": "O=C(N[C@@H](C(=O)N1CCC[C@H]1C(=O)Nc1ccc(C#Cc2cnc([C@@H]3CCCN3C(=O)[C@H](NC(=O)C3CC3)c3ccccc3)[nH]2)cc1)c1ccccc1)C1CC1", "note": "[Compound 117]", "values": [
      {"measurement": "EC50", "result": "< 1", "unit": "nM"}
    ]},
    {"smiles": "CN1CCN(C(=O)N[C@@H](C(=O)N2CCC[C@H]2c2ncc(C#Cc3ccc(-c4cnc([C@@H]5CCCN5C(=O)[C@H](NC(=O)N5CCN(C)CC5)c5ccccc5)[nH]4)cc3)[nH]2)c2ccccc2)CC1", "note": "[Compound 118]", "values": [
      {"measurement": "EC50", "result": "10 to 999", "unit": "nM"}
    ]},
    {"smiles": "CC(C)(C)OC(=O)N[C@@H](C(=O)N1CCC[C@H]1C(=O)NCc1ccc(C#Cc2cnc([C@@H]3CCCN3C(=O)[C@H](NC(=O)OC(C)(C)C)c3ccccc3)[nH]2)cc1)c1ccccc1", "note": "[Compound 119]", "values": [
      {"measurement": "EC50", "result": "< 1", "unit": "nM"}
    ]},
    {"smiles": "CC(C)[C@@H](NC(=O)OC(C)(C)C)C(=O)N1CCC[C@H]1C(=O)NCc1ccc(C#Cc2cnc([C@@H]3CCCN3C(=O)[C@H](NC(=O)OC(C)(C)C)C(C)C)[nH]2)cc1", "note": "[Compound 120]", "values": [
      {"measurement": "EC50", "result": "10 to 999", "unit": "nM"}
    ]},
    {"smiles": "O=C(N[C@@H](C(=O)N1CCC[C@H]1C(=O)NCc1ccc(C#Cc2cnc([C@@H]3CCCN3C(=O)[C@H](NC(=O)C3CC3)c3ccccc3)[nH]2)cc1)c1ccccc1)C1CC1", "note": "[Compound 121]", "values": [
      {"measurement": "EC50", "result": "< 1", "unit": "nM"}
    ]},
    {"smiles": "CC(C)[C@@H](NC(=O)C1CC1)C(=O)N1CCC[C@H]1C(=O)NCc1ccc(C#Cc2cnc([C@@H]3CCCN3C(=O)[C@H](NC(=O)C3CC3)C(C)C)[nH]2)cc1", "note": "[Compound 122]", "values": [
      {"measurement": "EC50", "result": "1 to 9.9", "unit": "nM"}
    ]},
    {"smiles": "COC(=O)N[C@@H](C(=O)N1CCC[C@H]1c1ncc(C#Cc2ccc(-c3cnc([C@@H]4CCCN4C(=O)[C@@H](c4ccccc4)N(C)C)[nH]3)cc2)[nH]1)c1ccccc1", "note": "[Compound 123]", "values": [
      {"measurement": "EC50", "result": "< 1", "unit": "nM"}
    ]},
    {"smiles": "CC(C)(C)OC(=O)N[C@@H](C(=O)N1CCC[C@H]1C(=O)NCCc1ccc(C#Cc2cnc([C@@H]3CCCN3C(=O)[C@H](NC(=O)OC(C)(C)C)c3ccccc3)[nH]2)cc1)c1ccccc1", "note": "[Compound 124]", "values": [
      {"measurement": "EC50", "result": "< 1", "unit": "nM"}
    ]},
    {"smiles": "O=C(N[C@@H](C(=O)N1CCC[C@H]1C(=O)NCCc1ccc(C#Cc2cnc([C@@H]3CCCN3C(=O)[C@H](NC(=O)C3CC3)c3ccccc3)[nH]2)cc1)c1ccccc1)C1CC1", "note": "[Compound 125]", "values": [
      {"measurement": "EC50", "result": "< 1", "unit": "nM"}
    ]},
    {"smiles": "CC(C)[C@@H](NC(=O)OC(C)(C)C)C(=O)N1CCC[C@H]1C(=O)NCCc1ccc(C#Cc2cnc([C@@H]3CCCN3C(=O)[C@H](NC(=O)OC(C)(C)C)C(C)C)[nH]2)cc1", "note": "[Compound 126]", "values": [
      {"measurement": "EC50", "result": "10 to 999", "unit": "nM"}
    ]},
    {"smiles": "CC(C)[C@@H](NC(=O)C1CC1)C(=O)N1CCC[C@H]1C(=O)NCCc1ccc(C#Cc2cnc([C@@H]3CCCN3C(=O)[C@H](NC(=O)C3CC3)C(C)C)[nH]2)cc1", "note": "[Compound 127]", "values": [
      {"measurement": "EC50", "result": "10 to 999", "unit": "nM"}
    ]},
    {"smiles": "COC(=O)N[C@@H](C(=O)N1CCC[C@H]1c1ncc(-c2ccc(C#Cc3cnc([C@@H]4CCCN4C(=O)[C@@H](c4ccccc4)N(C)C)[nH]3)cc2)[nH]1)c1ccccc1", "note": "[Compound 128]", "values": [
      {"measurement": "EC50", "result": "< 1", "unit": "nM"}
    ]},
    {"smiles": "C[C@@H](NC(=O)[C@@H]1CCCN1C(=O)[C@H](NC(=O)OC(C)(C)C)c1ccccc1)c1ccc(C#Cc2cnc([C@@H]3CCCN3C(=O)[C@H](NC(=O)OC(C)(C)C)c3ccccc3)[nH]2)cc1", "note": "[Compound 129]", "values": [
      {"measurement": "EC50", "result": "10 to 999", "unit": "nM"}
    ]},
    {"smiles": "C[C@H](NC(=O)[C@@H]1CCCN1C(=O)[C@H](NC(=O)OC(C)(C)C)c1ccccc1)c1ccc(C#Cc2cnc([C@@H]3CCCN3C(=O)[C@H](NC(=O)OC(C)(C)C)c3ccccc3)[nH]2)cc1", "note": "[Compound 130]", "values": [
      {"measurement": "EC50", "result": "10 to 999", "unit": "nM"}
    ]},
    {"smiles": "CN(C)[C@@H](C(=O)N1CCC[C@H]1c1ncc(-c2ccc(C#Cc3cnc([C@@H]4CCCN4C(=O)[C@H](NC(=O)C4CC4)c4ccccc4)[nH]3)cc2)[nH]1)c1ccccc1", "note": "[Compound 131]", "values": [
      {"measurement": "EC50", "result": "< 1", "unit": "nM"}
    ]}
  ]
}
